{"source": "ChEMBL document CHEMBL3217494", "about": "“Selective inhibition of EGFR and VEGFR2 tyrosine kinases controlled by a boronic acid substituent on 4-anilinoquinazolines” (Medchemcomm, 2010)", "key": {"[1]": {"target": "T1, Vascular endothelial growth factor receptor 2 (Homo sapiens, UniProt P35968)", "assay": "Inhibition of VEGF-induced KDR phosphorylation in human HUVEC cells at 1 uM by immunoblot analysis", "format": "cell-based"}, "[2]": {"target": "Receptor tyrosine-protein kinase erbB-2 (Homo sapiens, UniProt P04626)", "sequence (P04626 whole entry, the tested form may be a part)": "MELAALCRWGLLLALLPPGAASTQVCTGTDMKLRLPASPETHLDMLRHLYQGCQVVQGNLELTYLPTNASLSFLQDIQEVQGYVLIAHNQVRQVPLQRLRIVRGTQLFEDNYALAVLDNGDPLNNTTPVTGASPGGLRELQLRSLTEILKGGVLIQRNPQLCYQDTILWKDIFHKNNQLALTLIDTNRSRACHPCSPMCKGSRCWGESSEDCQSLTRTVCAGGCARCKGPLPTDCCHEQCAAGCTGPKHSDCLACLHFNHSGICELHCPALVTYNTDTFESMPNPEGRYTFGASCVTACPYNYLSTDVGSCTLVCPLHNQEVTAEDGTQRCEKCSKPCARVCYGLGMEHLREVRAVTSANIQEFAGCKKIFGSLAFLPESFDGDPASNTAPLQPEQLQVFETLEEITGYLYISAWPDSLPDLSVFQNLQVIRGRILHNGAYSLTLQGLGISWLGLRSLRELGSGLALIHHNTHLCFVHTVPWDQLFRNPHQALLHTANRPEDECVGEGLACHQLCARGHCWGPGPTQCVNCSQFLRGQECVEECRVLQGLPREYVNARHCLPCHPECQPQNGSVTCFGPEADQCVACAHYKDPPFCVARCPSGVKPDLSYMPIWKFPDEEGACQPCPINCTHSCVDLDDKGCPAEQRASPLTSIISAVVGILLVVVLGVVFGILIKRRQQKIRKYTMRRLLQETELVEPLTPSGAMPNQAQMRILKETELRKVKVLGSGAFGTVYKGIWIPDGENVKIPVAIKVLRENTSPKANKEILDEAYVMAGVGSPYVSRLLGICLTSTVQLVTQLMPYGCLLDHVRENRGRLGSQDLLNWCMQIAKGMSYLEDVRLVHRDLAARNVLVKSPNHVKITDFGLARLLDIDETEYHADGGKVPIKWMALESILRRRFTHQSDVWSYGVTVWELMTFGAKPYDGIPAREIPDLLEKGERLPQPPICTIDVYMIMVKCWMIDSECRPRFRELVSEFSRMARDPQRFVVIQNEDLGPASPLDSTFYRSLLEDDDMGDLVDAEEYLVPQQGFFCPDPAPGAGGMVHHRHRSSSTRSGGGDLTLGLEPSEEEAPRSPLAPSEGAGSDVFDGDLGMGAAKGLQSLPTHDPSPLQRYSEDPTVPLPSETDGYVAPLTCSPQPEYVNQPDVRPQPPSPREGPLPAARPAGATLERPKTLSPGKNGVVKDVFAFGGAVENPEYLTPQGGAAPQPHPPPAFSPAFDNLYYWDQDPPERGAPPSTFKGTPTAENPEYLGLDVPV", "assay": "Inhibition of HER2 catalytic domain (unknown origin) assessed as reduction of poly(Glu:Tyr) substrate phosphorylation after 20 mins by ELISA"}, "[3]": {"target": "Vascular endothelial growth factor receptor 1 (Homo sapiens, UniProt P17948)", "sequence (P17948 whole entry, the tested form may be a part)": "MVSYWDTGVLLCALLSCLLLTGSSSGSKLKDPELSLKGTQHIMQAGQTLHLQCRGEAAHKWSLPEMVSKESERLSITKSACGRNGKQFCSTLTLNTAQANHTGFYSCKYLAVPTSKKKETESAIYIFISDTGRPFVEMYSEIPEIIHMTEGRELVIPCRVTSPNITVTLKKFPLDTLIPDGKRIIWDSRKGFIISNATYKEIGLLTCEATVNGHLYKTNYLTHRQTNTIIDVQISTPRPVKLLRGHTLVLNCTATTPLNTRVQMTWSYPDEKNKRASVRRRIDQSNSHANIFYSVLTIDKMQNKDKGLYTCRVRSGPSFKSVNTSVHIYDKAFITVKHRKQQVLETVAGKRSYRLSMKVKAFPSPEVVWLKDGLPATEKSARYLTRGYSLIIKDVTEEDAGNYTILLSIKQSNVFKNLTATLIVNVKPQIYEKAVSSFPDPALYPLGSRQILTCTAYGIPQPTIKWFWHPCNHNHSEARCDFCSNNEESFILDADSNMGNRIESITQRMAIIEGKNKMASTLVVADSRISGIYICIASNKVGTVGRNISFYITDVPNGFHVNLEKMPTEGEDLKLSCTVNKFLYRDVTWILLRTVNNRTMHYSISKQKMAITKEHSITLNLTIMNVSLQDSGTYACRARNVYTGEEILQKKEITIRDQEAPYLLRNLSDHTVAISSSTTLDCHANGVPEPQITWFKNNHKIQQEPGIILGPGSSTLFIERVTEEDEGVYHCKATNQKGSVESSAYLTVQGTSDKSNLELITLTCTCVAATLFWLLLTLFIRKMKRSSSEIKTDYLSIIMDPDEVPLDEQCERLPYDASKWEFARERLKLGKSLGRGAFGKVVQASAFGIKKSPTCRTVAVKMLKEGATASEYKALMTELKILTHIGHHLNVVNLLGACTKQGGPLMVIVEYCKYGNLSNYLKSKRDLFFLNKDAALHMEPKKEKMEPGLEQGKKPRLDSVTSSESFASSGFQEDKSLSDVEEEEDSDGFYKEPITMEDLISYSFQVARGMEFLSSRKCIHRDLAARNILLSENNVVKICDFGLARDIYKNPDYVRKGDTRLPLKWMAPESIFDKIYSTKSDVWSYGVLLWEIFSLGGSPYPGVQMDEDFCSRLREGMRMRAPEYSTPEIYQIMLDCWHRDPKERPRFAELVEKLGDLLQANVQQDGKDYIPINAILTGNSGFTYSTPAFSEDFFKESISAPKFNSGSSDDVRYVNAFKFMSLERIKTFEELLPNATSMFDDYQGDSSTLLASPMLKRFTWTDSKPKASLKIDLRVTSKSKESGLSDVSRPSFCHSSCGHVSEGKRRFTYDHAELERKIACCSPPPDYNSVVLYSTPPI", "assay": "Inhibition of Flt-1 catalytic domain (unknown origin) assessed as reduction of poly(Glu:Tyr) substrate phosphorylation after 20 mins by ELISA"}, "[4]": {"target": "T2, Epidermal growth factor receptor (Homo sapiens, UniProt P00533)", "T2 sequence (P00533 whole entry)": "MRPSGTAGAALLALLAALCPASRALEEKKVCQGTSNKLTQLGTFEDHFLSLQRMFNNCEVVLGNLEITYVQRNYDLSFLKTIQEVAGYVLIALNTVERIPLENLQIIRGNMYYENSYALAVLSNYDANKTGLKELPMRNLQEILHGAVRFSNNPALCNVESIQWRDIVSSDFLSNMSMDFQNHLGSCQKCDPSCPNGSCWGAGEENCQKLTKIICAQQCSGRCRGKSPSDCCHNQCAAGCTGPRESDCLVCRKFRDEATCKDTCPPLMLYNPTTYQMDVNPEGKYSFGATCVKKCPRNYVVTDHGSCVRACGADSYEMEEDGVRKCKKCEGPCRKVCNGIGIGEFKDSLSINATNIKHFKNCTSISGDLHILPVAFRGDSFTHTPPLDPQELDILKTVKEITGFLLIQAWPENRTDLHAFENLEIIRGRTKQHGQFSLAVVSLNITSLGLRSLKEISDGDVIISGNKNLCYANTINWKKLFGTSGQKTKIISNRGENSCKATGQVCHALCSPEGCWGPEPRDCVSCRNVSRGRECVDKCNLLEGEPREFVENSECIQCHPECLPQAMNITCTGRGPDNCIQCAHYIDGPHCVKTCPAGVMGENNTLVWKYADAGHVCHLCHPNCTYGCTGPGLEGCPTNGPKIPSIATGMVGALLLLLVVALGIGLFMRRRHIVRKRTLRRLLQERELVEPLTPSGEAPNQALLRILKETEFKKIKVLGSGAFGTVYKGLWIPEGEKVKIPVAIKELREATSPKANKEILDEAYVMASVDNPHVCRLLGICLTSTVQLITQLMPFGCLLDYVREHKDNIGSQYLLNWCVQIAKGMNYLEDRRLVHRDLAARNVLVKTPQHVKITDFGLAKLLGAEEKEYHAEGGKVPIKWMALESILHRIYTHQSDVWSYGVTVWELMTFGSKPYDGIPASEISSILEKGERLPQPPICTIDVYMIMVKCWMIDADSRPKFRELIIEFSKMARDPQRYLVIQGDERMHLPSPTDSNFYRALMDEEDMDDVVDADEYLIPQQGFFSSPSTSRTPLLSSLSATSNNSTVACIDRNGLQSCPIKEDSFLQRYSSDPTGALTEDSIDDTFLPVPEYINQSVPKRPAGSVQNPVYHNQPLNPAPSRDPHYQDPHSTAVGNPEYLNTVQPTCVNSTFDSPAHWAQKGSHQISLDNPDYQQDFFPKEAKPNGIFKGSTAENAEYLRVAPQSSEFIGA", "assay": "Inhibition of EGFR in human A431 cells assessed as decrease in EGF-induced Akt phosphorylation at 1 uM by immunoblot analysis", "format": "cell-based", "conditions": "A-431"}, "[5]": {"target": "T2, Epidermal growth factor receptor", "assay": "Inhibition of EGFR catalytic domain (unknown origin) assessed as reduction of poly(Glu:Tyr) substrate phosphorylation after 20 mins by ELISA"}, "[6]": {"target": "T2, Epidermal growth factor receptor", "assay": "Inhibition of EGFR in human A431 cells assessed as decrease in EGF-induced ERK phosphorylation at 1 uM by immunoblot analysis", "format": "cell-based", "conditions": "A-431"}, "[7]": {"target": "T2, Epidermal growth factor receptor", "assay": "Inhibition of EGF-induced EGFR autophosphorylation in human A431 cells at 1 uM by immunoblot analysis", "format": "cell-based", "conditions": "A-431"}, "[8]": {"target": "T1, Vascular endothelial growth factor receptor 2", "assay": "Inhibition of KDR catalytic domain (unknown origin) assessed as reduction of poly(Glu:Tyr) substrate phosphorylation after 20 mins by ELISA"}}, "note": "Activity calls are given as the source filed them. The calls are words filed in the database; no cut-off is given here.", "data": [{"smiles": "COCCOc1cc2ncnc(Nc3cccc(B(O)O)c3)c2cc1OCCOC", "values": [{"measurement": "inhibition", "setting": "[1]", "value": "Active"}, {"measurement": "IC50", "setting": "[2]", "value": "> 1000", "unit": "nM"}, {"measurement": "IC50", "setting": "[3]", "value": "> 1000", "unit": "nM"}, {"measurement": "inhibition", "setting": "[4]", "value": "inactive"}, {"measurement": "IC50", "setting": "[5]", "value": "> 1000", "unit": "nM"}, {"measurement": "inhibition", "setting": "[6]", "value": "inactive"}, {"measurement": "inhibition", "setting": "[7]", "value": "inactive"}, {"measurement": "IC50", "setting": "[8]", "value": 190, "unit": "nM"}]}, {"smiles": "COc1cc2ncnc(Nc3ccc(F)c(Cl)c3)c2cc1B1OC(C)(C)C(C)(C)O1", "values": [{"measurement": "IC50", "setting": "[2]", "value": "> 1000", "unit": "nM"}, {"measurement": "IC50", "setting": "[3]", "value": "> 1000", "unit": "nM"}, {"measurement": "inhibition", "setting": "[4]", "value": "Active"}, {"measurement": "IC50", "setting": "[5]", "value": 520, "unit": "nM"}, {"measurement": "inhibition", "setting": "[6]", "value": "Active"}, {"measurement": "inhibition", "setting": "[7]", "value": "Active"}, {"measurement": "IC50", "setting": "[8]", "value": "> 1000", "unit": "nM"}]}, {"smiles": "COc1cc2ncnc(Nc3cccc(B(O)O)c3)c2cc1OC", "values": [{"measurement": "inhibition", "setting": "[1]", "value": "inactive"}, {"measurement": "IC50", "setting": "[2]", "value": "> 1000", "unit": "nM"}, {"measurement": "IC50", "setting": "[3]", "value": "> 1000", "unit": "nM"}, {"measurement": "inhibition", "setting": "[4]", "value": "inactive"}, {"measurement": "IC50", "setting": "[5]", "value": "> 1000", "unit": "nM"}, {"measurement": "inhibition", "setting": "[6]", "value": "inactive"}, {"measurement": "inhibition", "setting": "[7]", "value": "inactive"}, {"measurement": "IC50", "setting": "[8]", "value": 390, "unit": "nM"}]}, {"smiles": "CC1(C)OB(c2ccc3ncnc(Nc4ccc(F)c(Cl)c4)c3c2)OC1(C)C", "values": [{"measurement": "IC50", "setting": "[2]", "value": "> 1000", "unit": "nM"}, {"measurement": "IC50", "setting": "[3]", "value": "> 1000", "unit": "nM"}, {"measurement": "inhibition", "setting": "[4]", "value": "Active"}, {"measurement": "IC50", "setting": "[5]", "value": 570, "unit": "nM"}, {"measurement": "inhibition", "setting": "[6]", "value": "Active"}, {"measurement": "inhibition", "setting": "[7]", "value": "Active"}, {"measurement": "IC50", "setting": "[8]", "value": "> 1000", "unit": "nM"}]}, {"smiles": "OB(O)c1ccc2ncnc(Nc3cccc(Cl)c3)c2c1", "values": [{"measurement": "IC50", "setting": "[2]", "value": "> 1000", "unit": "nM"}, {"measurement": "IC50", "setting": "[3]", "value": "> 1000", "unit": "nM"}, {"measurement": "inhibition", "setting": "[4]", "value": "Active"}, {"measurement": "IC50", "setting": "[5]", "value": 650, "unit": "nM"}, {"measurement": "inhibition", "setting": "[6]", "value": "Active"}, {"measurement": "inhibition", "setting": "[7]", "value": "Active"}, {"measurement": "IC50", "setting": "[8]", "value": "> 1000", "unit": "nM"}]}, {"smiles": "COCCOc1cc2ncnc(Nc3ccc(B(O)O)cc3)c2cc1OC", "values": [{"measurement": "inhibition", "setting": "[1]", "value": "Active"}, {"measurement": "IC50", "setting": "[2]", "value": "> 1000", "unit": "nM"}, {"measurement": "IC50", "setting": "[3]", "value": "> 1000", "unit": "nM"}, {"measurement": "inhibition", "setting": "[4]", "value": "inactive"}, {"measurement": "IC50", "setting": "[5]", "value": "> 1000", "unit": "nM"}, {"measurement": "inhibition", "setting": "[6]", "value": "inactive"}, {"measurement": "inhibition", "setting": "[7]", "value": "inactive"}, {"measurement": "IC50", "setting": "[8]", "value": 860, "unit": "nM"}]}, {"smiles": "O=C(Nc1cccc(C(F)(F)F)c1)c1ccccc1NCc1ccncc1", "values": [{"measurement": "IC50", "setting": "[2]", "value": "> 1000", "unit": "nM"}]}, {"smiles": "CC1(C)OB(c2ccc3ncnc(Nc4cccc(Cl)c4)c3c2)OC1(C)C", "values": [{"measurement": "IC50", "setting": "[2]", "value": "> 1000", "unit": "nM"}, {"measurement": "IC50", "setting": "[3]", "value": "> 1000", "unit": "nM"}, {"measurement": "inhibition", "setting": "[4]", "value": "Active"}, {"measurement": "IC50", "setting": "[5]", "value": 590, "unit": "nM"}, {"measurement": "inhibition", "setting": "[6]", "value": "Active"}, {"measurement": "inhibition", "setting": "[7]", "value": "Active"}, {"measurement": "IC50", "setting": "[8]", "value": "> 1000", "unit": "nM"}]}, {"smiles": "COCCOc1cc2ncnc(Nc3cccc(B(O)O)c3)c2cc1OC", "values": [{"measurement": "inhibition", "setting": "[1]", "value": "Active"}, {"measurement": "IC50", "setting": "[2]", "value": "> 1000", "unit": "nM"}, {"measurement": "IC50", "setting": "[3]", "value": "> 1000", "unit": "nM"}, {"measurement": "inhibition", "setting": "[4]", "value": "inactive"}, {"measurement": "IC50", "setting": "[5]", "value": "> 1000", "unit": "nM"}, {"measurement": "inhibition", "setting": "[6]", "value": "inactive"}, {"measurement": "inhibition", "setting": "[7]", "value": "inactive"}, {"measurement": "IC50", "setting": "[8]", "value": 180, "unit": "nM"}]}, {"smiles": "COc1cc2ncnc(Nc3ccc(F)c(Cl)c3)c2cc1B(O)O", "values": [{"measurement": "IC50", "setting": "[2]", "value": "> 1000", "unit": "nM"}, {"measurement": "IC50", "setting": "[3]", "value": "> 1000", "unit": "nM"}, {"measurement": "inhibition", "setting": "[4]", "value": "Active"}, {"measurement": "IC50", "setting": "[5]", "value": 510, "unit": "nM"}, {"measurement": "inhibition", "setting": "[6]", "value": "Active"}, {"measurement": "inhibition", "setting": "[7]", "value": "Active"}, {"measurement": "IC50", "setting": "[8]", "value": "> 1000", "unit": "nM"}]}, {"smiles": "COc1cc2ncnc(Nc3cccc(Cl)c3)c2cc1B1OC(C)(C)C(C)(C)O1", "values": [{"measurement": "IC50", "setting": "[2]", "value": "> 1000", "unit": "nM"}, {"measurement": "IC50", "setting": "[3]", "value": "> 1000", "unit": "nM"}, {"measurement": "inhibition", "setting": "[4]", "value": "Active"}, {"measurement": "IC50", "setting": "[5]", "value": 490, "unit": "nM"}, {"measurement": "inhibition", "setting": "[6]", "value": "Active"}, {"measurement": "inhibition", "setting": "[7]", "value": "Active"}, {"measurement": "IC50", "setting": "[8]", "value": "> 1000", "unit": "nM"}]}, {"smiles": "OB(O)c1ccc2ncnc(Nc3ccc(F)c(Cl)c3)c2c1", "values": [{"measurement": "IC50", "setting": "[2]", "value": "> 1000", "unit": "nM"}, {"measurement": "IC50", "setting": "[3]", "value": "> 1000", "unit": "nM"}, {"measurement": "inhibition", "setting": "[4]", "value": "Active"}, {"measurement": "IC50", "setting": "[5]", "value": 800, "unit": "nM"}, {"measurement": "inhibition", "setting": "[6]", "value": "Active"}, {"measurement": "inhibition", "setting": "[7]", "value": "Active"}, {"measurement": "IC50", "setting": "[8]", "value": "> 1000", "unit": "nM"}]}, {"smiles": "COc1cc2ncnc(Nc3ccc(B(O)O)cc3)c2cc1OC", "values": [{"measurement": "inhibition", "setting": "[1]", "value": "inactive"}, {"measurement": "IC50", "setting": "[2]", "value": "> 1000", "unit": "nM"}, {"measurement": "IC50", "setting": "[3]", "value": "> 1000", "unit": "nM"}, {"measurement": "inhibition", "setting": "[4]", "value": "inactive"}, {"measurement": "IC50", "setting": "[5]", "value": "> 1000", "unit": "nM"}, {"measurement": "inhibition", "setting": "[6]", "value": "inactive"}, {"measurement": "inhibition", "setting": "[7]", "value": "inactive"}, {"measurement": "IC50", "setting": "[8]", "value": 36, "unit": "nM"}]}, {"smiles": "COc1cc2ncnc(Nc3cccc(Cl)c3)c2cc1B(O)O", "values": [{"measurement": "IC50", "setting": "[2]", "value": "> 1000", "unit": "nM"}, {"measurement": "IC50", "setting": "[3]", "value": "> 1000", "unit": "nM"}, {"measurement": "inhibition", "setting": "[4]", "value": "Active"}, {"measurement": "IC50", "setting": "[5]", "value": 460, "unit": "nM"}, {"measurement": "inhibition", "setting": "[6]", "value": "Active"}, {"measurement": "inhibition", "setting": "[7]", "value": "Active"}, {"measurement": "IC50", "setting": "[8]", "value": "> 1000", "unit": "nM"}]}, {"smiles": "COCCOc1cc2ncnc(Nc3ccc(B(O)O)cc3)c2cc1OCCOC", "values": [{"measurement": "inhibition", "setting": "[1]", "value": "Active"}, {"measurement": "IC50", "setting": "[2]", "value": "> 1000", "unit": "nM"}, {"measurement": "IC50", "setting": "[3]", "value": "> 1000", "unit": "nM"}, {"measurement": "inhibition", "setting": "[4]", "value": "inactive"}, {"measurement": "IC50", "setting": "[5]", "value": "> 1000", "unit": "nM"}, {"measurement": "inhibition", "setting": "[6]", "value": "inactive"}, {"measurement": "inhibition", "setting": "[7]", "value": "inactive"}, {"measurement": "IC50", "setting": "[8]", "value": 37, "unit": "nM"}]}]}
